Earlier results in US8529954B2, “Composition based on gamma-hydroxybutyric acid” (Debregeas et Associes Pharma, priority 2008, dated 2013).
Structures can show the parent of a compound that is named as a salt.

Key:
[1] = approximately

Question: With O=C(O)CCCO [GHB, Gamma-hydroxybutyric acid] as the compound, how does the “stability in an acidic environment” value read?
Answer: Its value is “unstable”.

Question: With O=C(O)CCCO [sodium hydroxybutyrate, sodium salt of 4-hydroxybutyric acid] as the compound, how does the “maximum peak after its administration (time of peak)” value ([1]; absorbed by the gastroenteric system) read?
Answer: The value was 30 to 45 min.

Question: What about the half life [1] of the same compound?
Answer: Its half life is 20 to 25 min.

Question: What about the “time in which it is eliminated” value [1] of the same compound?
Answer: Its value is 4 to 5 h.
